Experimental data from patent US20080063601A1, “Compositions and methods relating to polycystic kidney disease” (priority 2004, published 2008).

Columns and labels:
in vitro = type: cell-based; settings: human
From the text: (§1) To investigate further the role of calcium in triptolide function Applicant utilized a system to buffer intracellular calcium levels. Various GFP-parvalbumin (PV) fusion proteins can be specifically localized to either the nucleus or the cytoplasm through a nuclear localization or exclusion signal (NLS or NES, respectively) (Pusl, et al., 2002, J Biol Chem 277, 27517-27527). Parvalbumin has two EF-hand calcium binding domains and can efficiently reduce the availability of free calcium in the cell (Pauls, et al., 1996, Biochim Biophys Acta 1306, 39-54). HeLa cells were transiently transfected with the GFP vector control, NES-PV-GFP, or NLS-PV-GFP in calcium containing media and efficient expression of each construct was determined by GFP localization (FIG. 6A). Normal cell growth was first assessed throughout 48 hours with each of the constructs. […] For triptolide experiments, cells were transfected and allowed to express the construct for 24 hours before the addition of 100 nM triptolide. After 24 and 48 hours of treatment, cells were assessed for viability. […] Since the parvalbumin buffering experiments are done in the presence of extracellular calcium, the cell can operate normally in that intracellular calcium stores may be refilled. It is reasonable to expect then if calcium homeostasis is being affected (i.e., cytosolic calcium levels increase) by triptolide, then parvalbumin would eventually reach a saturation point. This might explain why the rescue from apoptosis is transient through the 24 hour time point but is lost by 48 hours.
(§2) All parvalbumin-GFP constructs and control vectors (Pusl, et al., 2002, J Biol Chem 277, 27517-27527) were a gift of Anton Bennett (Yale University). Hela cells were plated out on 6- or 12-well plates at a density of 5×10^5 or 1×10^5, respectively. […] Cell viability was assessed at 24 and 48 hours post triptolide addition by morphology and trypan blue dye exclusion.

HeLa cells [1] = experiment: in vitro; type: cell-based; settings: HeLa, 100 nM
From the text: as §1, §2

[2] = system: Pkd1^−/− murine kidney epithelial cells; experiment: Growth, p21 and active caspase-3 in Pkd1−/− kidney epithelial cells; type: cell-based; settings: 100 nM
Experimental: Total cell lysates (0.5% Triton X-100, 50 mM Tris pH 7.4, 150 mM NaCl, […]) were prepared for Western blot analysis and samples were run out by SDS-PAGE as per manufacturers' protocols. Brightfield images of cells were taken using a 10× or 40× objective. Confocal microscopy (40×) was used for immunofluorescence imaging of polycystin-2.
Calcium response to triptolide was, thus, shown to be dependent on polycystin-2. The biological response to calcium flux was next assessed in the murine Pkd1^−/− cell line, by adding 100 nM triptolide to the cultured cells and observing cell growth over time. Within the first 24 hours of culture, a minimal number of detached cells was observed. […] In the absence of triptolide, this cell line underwent a population doubling every 48 hours. […] It is possible that additional signaling pathways are activated by triptolide when Pkd1 is expressed. […] Therefore, Applicant assessed whether the inhibition of proliferation observed was due to p21 re-expression upon triptolide treatment.

HeLa cells [3] = experiment: [3H]-triptolide labeling followed by cellular fractionation; type: binding
From the text: To address first the nature of triptolide binding within the cell, Applicant determined this interaction was reversible as [^3H]-triptolide labeling was out competed by subsequent addition of excess unlabeled triptolide (FIG. 4A). […] Although 25% of the total cellular counts (i.e., representing bound triptolide) were found in the cytosolic fraction, it is uncertain whether this is specific binding or simply that free triptolide had dissociated from its binding protein due to experimental manipulation during fractionation. Since the data thus far had only shown binding within whole cells, Applicant next determined if this triptolide binding protein could be further characterized and/or enriched by its association with chromatographic reagents. HeLa cells were once again labeled with [^3H]-triptolide and total cell lysates were then passed over the anion exchange resin DEAE. […] Importantly, Applicant also observed that [^3H]-triptolide would only bind to intact cells in culture but would not bind to any component of a total cellular lysate as assessed by interaction with the DEAE resin. […]
For cellular fractionation studies, cells were allowed to swell on ice and lysed by passage through a syringe in a hypotonic lysis buffer (10 mM Tris-HCl+complete protease inhibitors). […] Gel slices were measured out in equal increments and the molecular weight range of each was calculated. […]

CC(C)[C@]12O[C@H]1[C@@H]1O[C@]13[C@]1(O[C@H]1C[C@H]1C4=C(CC[C@@]13C)C(=O)OC4)[C@@H]2O [triptolide]
cytotoxicity at 24 h, 0.1 µM (in vitro): 50% | cell death in all transfection conditions (HeLa cells [1]; by 48 hours): complete cell death | apoptosis (HeLa cells [1]; cytosolic parvalbumin (NES-PV-GFP), 24 hours): 15-20% | active caspase-3 (western blot) [2]: failed to implicate triptolide induced apoptosis | p21 expression (western blot) ([2]; 96 hour time course): upregulated | cell growth ([2]; over 96 hours): growth arrested | cellular fraction that binds [3H]-triptolide (HeLa cells [3]; S-100, P-100, insoluble fractions): predominantly to the membrane fraction (P-100) | total cellular counts (bound triptolide) found in the cytosolic fraction (HeLa cells [3]; S-100 fraction): 25%
